Laboratory results published in the NIST ThermoML archive (doi:10.1021/acs.jced.8b00499).

Legend:
[1] = Liquid; for viscosity / mass density: 298.15 K, 101.33 kPa; for viscosity: Capillary tube (Ostwald / Ubbelohde) method; for mass density: Pycnometric method; for vapor or sublimation pressure: Ebulliometric method (Recirculating still)
[2] = refractive index (Na D-line) (dimensionless); conditions: 298.15 K; 101.33 kPa; Liquid; Standard Abbe refractometry

CCC(C)OCOC (stereo unspecified) [2-(methoxymethoxy)butane]
Conditions	mass density [kg/m3]	refractive index	viscosity [mPa·s]
[1]	836.4	–	0.561
[2]	–	1.3833	–

[1]
Conditions	vapor or sublimation pressure [kPa]
346.4 K	31.5
349.99 K	36.4
356.07 K	44.4
359.47 K	49.6
363.89 K	57.2
367.43 K	65.1
372.48 K	75.7
376.45 K	85.1
379.35 K	92
382.8 K	101.3
385.21 K	109.1
388.5 K	119
391.24 K	127.9

CCCCO [butan-1-ol]
Conditions	mass density [kg/m3]	refractive index	viscosity [mPa·s]
[1]	806	–	2.534
[2]	–	1.3972	–

Conditions	vapor or sublimation pressure [kPa]
[1], 390.9 K	101.3

CCC(C)O (stereo unspecified) [butan-2-ol]
Conditions	mass density [kg/m3]	refractive index	viscosity [mPa·s]
[1]	802.6	–	3.099
[2]	–	1.395	–

[1]
Conditions	vapor or sublimation pressure [kPa]
344.47 K	31.5
351.27 K	42.8
356.45 K	53.5
363.21 K	70.7
366.85 K	81.2
369.83 K	91.3
372.7 K	101.3

CO [methanol]
Conditions	vapor or sublimation pressure [kPa]
[1], 337.83 K	101.3
